Assay results as given in EP0202661B1, “Isolation of castanospermine and its use as an antidiabetic agent” (MERRELL DOW PHARMACEUTICALS INC., priority 1985, dated 1986).

What was measured:
[1] = tested on: Starch-Administrated Mice; experiment: Inhibitory action against increase of blood glucose in starch-administered mice; format: in vivo, Male ICR-Swiss mice; details: for Blood Glucose Concentration (mg%) at 45 min. After Starch: fasted mice, starch control (0 mg/kg) 126, blank 72
Procedure: Inhibitory Action Against Increase of Blood Glucose in Starch-Administrated Mice
(§1) Male ICR-Swiss mice with body weight of 25-35 g were fasted overnight. Starch was administered orally by gavage at a dose of 1 g/kg 15 minutes after the similar administration of castanospermine at doses of 1.9 to 60 mg/kg. Animals were sacrificed at 45 minutes after starch administration and blood glucose levels were measured by a method using glucose dehydrogenase. […]

[2] = tested on: intestinal glycosidases (i.e., maltase and sucrase); details: rats, cited from earlier work
[3] = tested on: Sucrose-Administered Mice; experiment: Inhibitory action against increase of blood glucose in sucrose-administered mice; format: in vivo, Male ICR-swiss mice; details: for Blood Glucose Concentration (mg%) at 30 Min. After Sucrose: fasted mice, sucrose control (0 mg/kg) 205, blank 107
Procedure: Inhibitory Action Against Increase of Blood Glucose in Sucrose-Administered Mice
as §1, with “Male ICR-swiss” for “Male ICR-Swiss”, “overnight. Sucrose” for “overnight. Starch”, “of 2” for “of 1”, “of 0.125” for “of 1.9”, “at 30” for “at 45”, “after sucrose” for “after starch”

Structure (SMILES): O[C@H]1[C@H](O)[C@@H](O)CN2CC[C@H](O)[C@H]12 [Castanospermine, (1S,6S,7R,8R,8aR)-1,6,7,8-tetrahydroxyindolizidine]
- minimal effective dose ([1]; Mus musculus, 0.75 h, oral gavage 15 min before starch 1 g/kg, blood glucose 45 min after starch, read-out: dose at which the increase in glucose in the blood could be significantly inhibited): ≥ 3.8 mg/kg
- Blood Glucose Concentration (mg%) at 45 min. After Starch ([1]; castanospermine 1.9 mg/kg oral gavage 15 min before starch 1 g/kg): 139 mg%
- Blood Glucose Concentration (mg%) at 45 min. After Starch ([1]; castanospermine 3.8 mg/kg oral gavage 15 min before starch 1 g/kg): 83 mg%
- Blood Glucose Concentration (mg%) at 45 min. After Starch ([1]; castanospermine 7.5 mg/kg oral gavage 15 min before starch 1 g/kg): 85 mg%
- inhibition of intestinal glycosidases (i.e., maltase and sucrase) ([2]; administered by injection, Saul et al., Proc. Nat'l. Acad. Sci. USA, 82, 93 (1985)): inhibits intestinal glycosidases
- adverse observations at high doses ([2]; high doses administered by injection, Saul et al. (1985)): diarrhea and high levels of intestinal bacterial flora were observed
- minimal effective dose ([3]; Mus musculus, 0.5 h, oral gavage 15 min before sucrose 2 g/kg, blood glucose 30 min after sucrose, read-out: dose at which the increase in glucose in the blood could be significantly inhibited): ≥ 0.125 mg/kg
- Blood Glucose Concentration (mg%) at 30 Min. After Sucrose ([3]; castanospermine 0.125 mg/kg oral gavage 15 min before sucrose 2 g/kg): 159 mg%
- Blood Glucose Concentration (mg%) at 30 Min. After Sucrose ([3]; castanospermine 0.25 mg/kg oral gavage 15 min before sucrose 2 g/kg): 167 mg%
- Blood Glucose Concentration (mg%) at 30 Min. After Sucrose ([3]; castanospermine 0.5 mg/kg oral gavage 15 min before sucrose 2 g/kg): 153 mg%
- Blood Glucose Concentration (mg%) at 30 Min. After Sucrose ([3]; castanospermine 1.0 mg/kg oral gavage 15 min before sucrose 2 g/kg): 146 mg%
- Blood Glucose Concentration (mg%) at 30 Min. After Sucrose ([3]; castanospermine 2.0 mg/kg oral gavage 15 min before sucrose 2 g/kg): 116 mg%
